Patent US20130102538A1, “METHOD OF TREATING ALZHEIMER'S DISEASE USING PHARMACOLOGICAL CHAPERONES TO INCREASE PRESENILIN FUNCTION AND GAMMA-SECRETASE ACTIVITY” (AMICUS THERAPEUTICS, INC., priority 2010, published 2013)

Experiments:
presenilin 1 = molecular target: T1, presenilin 1 (Mus musculus, UniProt P49769); assay: In vivo brain PS1 levels in mice after compound A, western blot; parameters: species or system C57BL6 mice; settings: 30 mg/kg oral once daily 4 days
T1 construct: brain levels of mature PS1 remain elevated for well after compound A and α-CTFs have returned to baseline levels; The mature form of presenlin is a heterodimer consisting of a ˜30 kDa NH2-terminal fragment (NTF) and a ˜20 kDa C-terminal fragment; from tissue; host or cells: brain membrane fraction of C57BL6 mice
Protocol: (§1) Mice were treated via gavage once daily for […] with 30 mg/Kg of compound A and then necropsied 0-48 hours after the final dose was administered.
(§2) C57BL6 mice were treated by oral gavage of 30 mg/kg compound A (0.5% methylcellulose carrier) once a day for 4 consecutive days. After the final dose, nine groups of animals (5 animals per group) were sacrificed at different time points ranging from 15 min. post final dose up to 48 hours post final dose (plus an untreated group). Blood was collected and mouse brain samples were minced and homogenized in water using a FastPrep homogenizer (Thermo Scientific). Plasma and brain homogenates were extracted with acetonitrile for measurement of compound A concentrations by LCMS. For biochemical analysis, brains were homogenized (250 mM sucrose, 50 mM Tris, pH 7.5, 1 mM EDTA plus protease inhibitors) and separated into a membrane fraction and soluble fraction by ultracentrifugation at 100,000 g for 1 hr. The membrane fraction was solubilized in RIPA buffer (1% TX100, 0.5% Taurodexoycholate, 0.1% SDS in TBS+PI) and clarified by centrifugation. Total protein was measured by BCA (Pierce) and 30 ug of each sample was separated by SDS/PAGE and analyzed by Western blot. The following antibodies were used: PS1 ( 1/1000 Abcam no. Ab10281); calnexin ( 1/1000 Abcam no. Ab10286) and APP-CTF ( 1/1000 Anaspec 54096). Western blots were developed using an alkaline phosphatase anti-rabbit secondary and an alkaline phosphatase chemiluminescent substrate. Chemiluminescence data was imaged using an Alpha Innotech FluorChem Q imager and band quantification was carried out using densitometry software AlphaViewQ (Alpha Innotech). […] Abeta40 was quantified from diethylamine extracts using BetaMark Abeta40 ELISA kit (Covance); Abeta42 was quantified from diethylamine extracts using the High Sensitivity Abeta42 ELISA kit (Wako).

γ-secretase [1] = assay: In vivo brain α-CTF, Aβ40 and Aβ42 levels in mice after compound A; parameters: species or system C57BL6 mice
Protocol: as §1, §2

[2] = Brain concentration of compound A by LCMS; assay type: in vivo; settings: C57BL6, mouse, oral, 30 mg/kg, mice, read-out: brain t1/2 (converted)
Protocol: as §2, with “The membrane fraction was solubilized in RIPA buffer (1% TX100, 0.5% Taurodexoycholate, 0.1% SDS in TBS+PI) and clarified by centrifugation.” left out, “The following antibodies were used: PS1 ( 1/1000 Abcam no. Ab10281); calnexin ( 1/1000 Abcam no. Ab10286) and APP-CTF ( 1/1000 Anaspec 54096). Western blots were developed using an alkaline phosphatase anti-rabbit secondary and an alkaline phosphatase chemiluminescent substrate.” left out

γ-secretase [3] = molecular target: γ-secretase (Homo sapiens, UniProt P49768); assay: γ-secretase inhibitory IC50 of compound A; settings: γ-secretase inhibition, compared with brain levels

C[C@H](OC(=O)NCC(F)(F)C(F)(F)F)C(=O)N[C@@H]1C(=O)N(C)c2ccccc2-c2ccccc21 [Compound A, (S)-1-(((S)-5-methyl-6-oxo-6,7-dihydro-5H-dibenzo[b,d]azepin-7-yl)amino)-1-oxopropan-2-yl (2,2,3,3,3-pentafluoropropyl)carbamate]
brain presenilin levels above untreated levels (presenilin 1; at 24 hours): 50%
increase of brain presenilin levels (presenilin 1; within 1 hour of washout): 50%
maximum increase of brain presenilin levels (presenilin 1; within 8 hours of washout): 2 fold
reduction of brain Aβ42 levels relative to untreated controls (γ-secretase [1]; 30 mg/kg oral once daily 4 days, 48 hrs after the final dose): 40%
Aβ42/Aβ40 ratio in brain (γ-secretase [1]; 30 mg/kg oral once daily 4 days, washout): reduced
time after final dose at which CTF levels begin to drop (γ-secretase [1]; 30 mg/kg oral, brain α-CTFs): 2 h
half-life [2]: ~3.5 h
IC50 (γ-secretase [3]): ~0.06 µM
